This experiment concerns the target T1, α7 nicotinic acetylcholine receptor (α7nAChR) (Mus musculus, UniProt P49582).
T1 construct: gene Chrna7; native receptor in hippocampal CA1 pyramidal cells (brain slices)
Briefly: whole cell patch-clamp of ACh-evoked inward current in mouse hippocampal slices, dose-response. For orientation: In patch-clamp work, channel activity is measured electrically.

T1 sequence (P49582 23-502): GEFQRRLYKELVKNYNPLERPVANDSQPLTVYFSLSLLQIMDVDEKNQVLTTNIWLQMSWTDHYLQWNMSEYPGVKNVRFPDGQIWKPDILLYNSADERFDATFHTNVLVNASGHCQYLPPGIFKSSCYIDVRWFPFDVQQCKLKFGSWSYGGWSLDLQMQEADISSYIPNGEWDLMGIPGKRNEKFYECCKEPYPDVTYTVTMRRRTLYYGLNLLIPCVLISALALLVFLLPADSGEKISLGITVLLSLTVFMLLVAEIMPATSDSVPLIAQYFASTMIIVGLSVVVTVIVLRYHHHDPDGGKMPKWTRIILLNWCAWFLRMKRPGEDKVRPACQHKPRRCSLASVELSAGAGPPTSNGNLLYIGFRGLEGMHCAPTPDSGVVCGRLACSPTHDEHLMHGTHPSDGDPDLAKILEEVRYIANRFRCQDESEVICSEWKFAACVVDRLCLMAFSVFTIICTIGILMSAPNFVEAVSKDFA

By EC50 is commonly meant the concentration giving half of the maximal effect. A high value points to a less potent agent. For `CC(=O)OCC[N+](C)(C)C` [acetylcholine], a half-maximal response (EC50) required 431 µM.
